{"source": "patent US11033539B2", "about": "“Compounds of formulas (VII), (VIII), (IX), (XI), (XII), (XIII), and (XIV) as muscarinic receptor 4(M4) antagonists for treating neurological diseases” (Neurocrine Biosciences, Inc., priority 2015, dated 2021)", "target": "human M4 receptor (Homo sapiens (Human), UniProt P08173)", "sequence (P08173 whole entry)": "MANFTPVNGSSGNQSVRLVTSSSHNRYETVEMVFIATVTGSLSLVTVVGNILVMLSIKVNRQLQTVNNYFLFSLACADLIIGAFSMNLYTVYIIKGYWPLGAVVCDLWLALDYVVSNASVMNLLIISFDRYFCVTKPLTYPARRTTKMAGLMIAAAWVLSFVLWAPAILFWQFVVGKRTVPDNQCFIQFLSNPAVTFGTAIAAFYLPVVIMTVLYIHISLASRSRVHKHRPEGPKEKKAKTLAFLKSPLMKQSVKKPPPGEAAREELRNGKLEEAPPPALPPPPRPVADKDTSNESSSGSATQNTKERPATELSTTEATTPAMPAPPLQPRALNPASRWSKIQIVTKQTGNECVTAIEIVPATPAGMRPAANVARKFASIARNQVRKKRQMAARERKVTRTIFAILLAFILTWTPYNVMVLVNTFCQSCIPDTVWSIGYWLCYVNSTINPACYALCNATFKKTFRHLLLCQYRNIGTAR", "experiment": "Radioligand (tritiated N-methylscopolamine) binding assay, M4", "details": "Ki against the M4 receptor; membranes from CHO cells expressing human M4; tritiated N-methylscopolamine 1.5 nM; read-out: Ki", "summary_of_the_method": "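Compounds were tested at twelve concentrations ranging from 10 μM to […] against 1.5 nM radioligand on CHO cell membranes expressing each subtype. Incubation lasts 90 min at 37 °C in HEPES-buffered saline with Mg2+ and EDTA, pH 7.4, and filtration then separates bound radioligand.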", "data": [{"smiles": "N#Cc1ccc(N2CCC(C(=O)NCCC3CCN(CC4CCCCC4)CC3)CC2)nc1", "note": "[11-8, 1-(5-cyanopyridin-2-yl)-N-{2-[1-(cyclohexylmethyl)piperidin-4-yl]ethyl}piperidine-4-carboxamide]", "values": [{"measurement": "Ki", "result": "100 to 1000", "unit": "nM"}]}, {"smiles": "COc1cccc(CN2CCC(CCNC(=O)c3ccc(OCc4ccccc4)cc3)CC2)c1O", "note": "[11-9, 4-(benzyloxy)-N-(2-{1-[(2-hydroxy-3-methoxyphenyl)methyl]piperidin-4-yl}ethyl)benzamide]", "values": [{"measurement": "Ki", "result": "100 to 1000", "unit": "nM"}]}, {"smiles": "O=C(NCCC1CCN(Cc2csnn2)CC1)C1CCN(c2ccc(OC(F)(F)F)cc2)CC1", "note": "[11-11, N-{2-[1-(1,2,3-thiadiazol-4-ylmethyl)piperidin-4-yl]ethyl}-1-[4-(trifluoromethoxy)phenyl]piperidine-4-carboxamide]", "values": [{"measurement": "Ki", "result": "100 to 1000", "unit": "nM"}]}, {"smiles": "O=C(NCCC1CCN(Cc2cccc(O)c2)CC1)c1ccc(Oc2ccccc2)cc1", "note": "[11-13, N-(2-{1-[(3-hydroxyphenyl)methyl]piperidin-4-yl}ethyl)-4-phenoxybenzamide]", "values": [{"measurement": "Ki", "result": "100 to 1000", "unit": "nM"}]}, {"smiles": "CC(c1ccccc1)N1CCC(CCNC(=O)c2ccc(OCc3ccccc3)cc2)CC1", "note": "(stereo not shown) [11-14, 4-(benzyloxy)-N-{2-[1-(1-phenylethyl)piperidin-4-yl]ethyl}benzamide]", "values": [{"measurement": "Ki", "result": "100 to 1000", "unit": "nM"}]}, {"smiles": "Cn1cccc1CN1CCC(CCNC(=O)C2CCN(c3ccc(OC(F)(F)F)cc3)CC2)CC1", "note": "[11-15, N-(2-{1-[(1-methyl-1H-pyrrol-2-yl)methyl]piperidin-4-yl}ethyl)-1-[4-(trifluoromethoxy)phenyl]piperidine-4-carboxamide]", "values": [{"measurement": "Ki", "result": "100 to 1000", "unit": "nM"}]}, {"smiles": "N#Cc1ccc(N2CCC(C(=O)NCCC3CCN(Cc4cccc5c4OCCO5)CC3)CC2)nc1", "note": "[11-16, 1-(5-cyanopyridin-2-yl)-N-{2-[1-(2,3-dihydro-1,4-benzodioxin-5-ylmethyl)piperidin-4-yl]ethyl}piperidine-4-carboxamide]", "values": [{"measurement": "Ki", "result": "100 to 1000", "unit": "nM"}]}, {"smiles": "N#Cc1ccc(N2CCC(C(=O)NCCC3CCN(Cc4ccc(O)cc4)CC3)CC2)nc1", "note": "[11-17, 1-(5-cyanopyridin-2-yl)-N-(2-{1-[(4-hydroxyphenyl)methyl]piperidin-4-yl}ethyl)piperidine-4-carboxamide]", "values": [{"measurement": "Ki", "result": "100 to 1000", "unit": "nM"}]}, {"smiles": "O=C(NCCC1CCN(Cc2cccc3c2OCCO3)CC1)c1ccc(Oc2ccccc2)cc1", "note": "[11-18, N-{2-[1-(2,3-dihydro-1,4-benzodioxin-5-ylmethyl)piperidin-4-yl]ethyl}-4-phenoxybenzamide]", "values": [{"measurement": "Ki", "result": "100 to 1000", "unit": "nM"}]}, {"smiles": "O=C(NCCC1CCN(CC2CCCCC2)CC1)C1CCN(c2ccc(OC(F)(F)F)cc2)CC1", "note": "[11-21, N-{2-[1-(cyclohexylmethyl)piperidin-4-yl]ethyl}-1-[4-(trifluoromethoxy)phenyl]piperidine-4-carboxamide]", "values": [{"measurement": "Ki", "result": "100 to 1000", "unit": "nM"}]}, {"smiles": "O=C(NCCC1CCN(Cc2ccc3[nH]ccc3c2)CC1)C1CCN(c2ccc(OC(F)(F)F)cc2)CC1", "note": "[11-22, N-{2-[1-(1H-indol-5-ylmethyl)piperidin-4-yl]ethyl}-1-[4-(trifluoromethoxy)phenyl]piperidine-4-carboxamide]", "values": [{"measurement": "Ki", "result": "100 to 1000", "unit": "nM"}]}, {"smiles": "O=C(NCC(O)C1CCN(CC2CCCCC2)CC1)C1CCN(c2ccc(OC(F)(F)F)cc2)CC1", "note": "(stereo not shown) [11-23, N-{2-[1-(cyclohexylmethyl)piperidin-4-yl]-2-hydroxyethyl}-1-[4-(trifluoromethoxy)phenyl]piperidine-4-carboxamide]", "values": [{"measurement": "Ki", "result": "100 to 1000", "unit": "nM"}]}, {"smiles": "O=C(NCCC1CCN(Cc2cccc(F)c2)CC1)c1ccc(OCc2ccccc2)cc1", "note": "[11-24, 4-(benzyloxy)-N-(2-{1-[(3-fluorophenyl)methyl]piperidin-4-yl}ethyl)benzamide]", "values": [{"measurement": "Ki", "result": "100 to 1000", "unit": "nM"}]}, {"smiles": "N#Cc1ccc(N2CCC(C(=O)NCCC3CCN(Cc4ccccc4O)CC3)CC2)nc1", "note": "[11-25, 1-(5-cyanopyridin-2-yl)-N-(2-{1-[(2-hydroxyphenyl)methyl]piperidin-4-yl}ethyl)piperidine-4-carboxamide]", "values": [{"measurement": "Ki", "result": "100 to 1000", "unit": "nM"}]}, {"smiles": "N#Cc1ccc(N2CCC(C(=O)NCCC3CCN(Cc4ccccc4O)CC3)CC2)nc1", "note": "[11-26, 1-(5-cyanopyridin-2-yl)-N-(2-{1-[(2-hydroxyphenyl)methyl]piperidin-4-yl}ethyl)piperidine-4-carboxamide]", "values": [{"measurement": "Ki", "result": "100 to 1000", "unit": "nM"}]}, {"smiles": "O=C(NCCC1CCN(Cc2cccc3c2OCC3)CC1)C1CCN(c2ccc(OC(F)(F)F)cc2)CC1", "note": "[11-29, N-{2-[1-(2,3-dihydro-1-benzofuran-7-ylmethyl)piperidin-4-yl]ethyl}-1-[4-(trifluoromethoxy)phenyl]piperidine-4-carboxamide]", "values": [{"measurement": "Ki", "result": "100 to 1000", "unit": "nM"}]}, {"smiles": "COc1cccc(CN2CCC(CCNC(=O)C3CCN(c4ccc(OC(F)(F)F)cc4)CC3)CC2)n1", "note": "[11-30, N-(2-{l-[(6-methoxypyridin-2-yl)methyl]piperidin-4-yl}ethyl)-1-[4-(trifluoromethoxy)phenyl]piperidine-4-carboxamide]", "values": [{"measurement": "Ki", "result": "100 to 1000", "unit": "nM"}]}, {"smiles": "O=C(OCCC1CCN(Cc2ccccc2)CC1)N1CCN(c2ccc(OC(F)(F)F)cc2)CC1", "note": "[12-1, 2-(1-benzylpiperidin-4-yl)ethyl 4-[4-(trifluoromethoxy)phenyl]piperazine-1-carboxylate]", "values": [{"measurement": "Ki", "result": "10 to 100", "unit": "nM"}]}, {"smiles": "N#Cc1cccc(N2CCN(C(=O)OCCC3CCN(Cc4ccccc4)CC3)CC2)c1", "note": "[12-2, 2-(1-benzylpiperidin-4-yl)ethyl 4-(3-cyanophenyl)piperazine-1-carboxylate]", "values": [{"measurement": "Ki", "result": "100 to 1000", "unit": "nM"}]}, {"smiles": "O=C(OCCC1CCN(Cc2ccccc2)CC1)N1CCN(c2ccc(F)cc2)CC1", "note": "[12-3, 2-(1-benzylpiperidin-4-yl)ethyl 4-(4-fluorophenyl)piperazine-1-carboxylate]", "values": [{"measurement": "Ki", "result": "100 to 1000", "unit": "nM"}]}, {"smiles": "O=C(OCCC1CCN(Cc2ccccc2)CC1)N1CCN(c2cccc(OC(F)(F)F)c2)CC1", "note": "[12-4, 2-(1-benzylpiperidin-4-yl)ethyl 4-[3-(trifluoromethoxy)phenyl]piperazine-1-carboxylate]", "values": [{"measurement": "Ki", "result": "10 to 100", "unit": "nM"}]}, {"smiles": "N#Cc1cccc(N2CCC(NC(=O)OCCC3CCN(Cc4ccccc4)CC3)CC2)c1", "note": "[12-5, 2-(1-benzylpiperidin-4-yl)ethyl N-[1-(3-cyanophenyl)piperidin-4-yl]carbamate]", "values": [{"measurement": "Ki", "result": "100 to 1000", "unit": "nM"}]}, {"smiles": "O=C(NC1CCN(c2ccc(F)cc2)CC1)OCCC1CCN(Cc2ccccc2)CC1", "note": "[12-6, 2-(1-benzylpiperidin-4-yl)ethyl N-[1-(4-fluorophenyl)piperidin-4-yl]carbamate]", "values": [{"measurement": "Ki", "result": "100 to 1000", "unit": "nM"}]}, {"smiles": "O=C(OCCC1CCN(Cc2ccccc2)CC1)N1CCC(O)(c2ccccc2)CC1", "note": "[12-7, 2-(1-benzylpiperidin-4-yl)ethyl 4-hydroxy-4-phenylpiperidine-1-carboxylate]", "values": [{"measurement": "Ki", "result": "100 to 1000", "unit": "nM"}]}, {"smiles": "O=C(OCCC1CCN(Cc2ccccc2)CC1)N1CCC(c2ccccc2)CC1", "note": "[12-8, 2-(1-benzylpiperidin-4-yl)ethyl 4-phenylpiperidine-1-carboxylate]", "values": [{"measurement": "Ki", "result": "100 to 1000", "unit": "nM"}]}, {"smiles": "N#Cc1cc(F)cc(N2CCN(C(=O)OCCC3CCN(Cc4ccccc4)CC3)CC2)c1", "note": "[12-9, 2-(1-benzylpiperidin-4-yl)ethyl 4-(3-cyano-5-fluorophenyl)piperazine-1-carboxylate]", "values": [{"measurement": "Ki", "result": "100 to 1000", "unit": "nM"}]}, {"smiles": "N#Cc1cc(N2CCN(C(=O)OCCC3CCN(Cc4ccccc4)CC3)CC2)ccc1F", "note": "[12-10, 2-(1-benzylpiperidin-4-yl)ethyl 4-(3-cyano-4-fluorophenyl)piperazine-1-carboxylate]", "values": [{"measurement": "Ki", "result": "100 to 1000", "unit": "nM"}]}, {"smiles": "O=C(NC1CCN(c2ccc(OC(F)(F)F)cc2)CC1)OCCC1CCN(Cc2ccccc2)CC1", "note": "[12-11, 2-(1-benzylpiperidin-4-yl)ethyl N-{1-[4-(trifluoromethoxy)phenyl]piperidin-4-yl}carbamate]", "values": [{"measurement": "Ki", "result": "10 to 100", "unit": "nM"}]}, {"smiles": "O=C(OCCC1CCN(Cc2ccccc2)CC1)N1CCN(c2cc(F)c(F)c(F)c2)CC1", "note": "[12-12, 2-(1-benzylpiperidin-4-yl)ethyl 4-(3,4,5-trifluorophenyl)piperazine-1-carboxylate]", "values": [{"measurement": "Ki", "result": "10 to 100", "unit": "nM"}]}, {"smiles": "Cc1c(C(=O)NCCC2CCN(Cc3ccccc3)CC2)cnc2cc(-c3ccccc3)nn12", "note": "[17-2, N-[2-(1-benzylpiperidin-4-yl)ethyl]-7-methyl-2-phenylpyrazolo[1,5-a]pyrimidine-6-carboxamide]", "values": [{"measurement": "Ki", "result": "100 to 1000", "unit": "nM"}]}, {"smiles": "Cc1c(C(=O)NCCC2CCN(Cc3ccccc3)CC2)cnc2cc(-c3ccc(Cl)cc3)nn12", "note": "[17-4, N-[2-(1-benzylpiperidin-4-yl)ethyl]-2-(4-chlorophenyl)-7-methylpyrazolo[1,5-a]pyrimidine-6-carboxamide]", "values": [{"measurement": "Ki", "result": "10 to 100", "unit": "nM"}]}, {"smiles": "Cc1c(C(=O)NCCC2CCN(Cc3ccccc3)CC2)cnc2cc(-c3cccs3)nn12", "note": "[17-7, N-[2-(1-benzylpiperidin-4-yl)ethyl]-7-methyl-2-(thiophen-2-yl)pyrazolo[1,5-a]pyrimidine-6-carboxamide]", "values": [{"measurement": "Ki", "result": "100 to 1000", "unit": "nM"}]}, {"smiles": "Cc1c(C(=O)NCCC2CCN(Cc3ccccc3)CC2)cnc2cc(-c3ccc(C(F)(F)F)cc3)nn12", "note": "[17-8, N-[2-(1-benzylpiperidin-4-yl)ethyl]-7-methyl-2-[4-(trifluoromethyl)phenyl]pyrazolo[1,5-a]pyrimidine-6-carboxamide]", "values": [{"measurement": "Ki", "result": "10 to 100", "unit": "nM"}]}, {"smiles": "Cc1c(C(=O)NCCC2CCN(Cc3ccccc3)CC2)cnc2cc(-c3ccccn3)nn12", "note": "[18-2, N-[2-(1-benzylpiperidin-4-yl)ethyl]-7-methyl-2-(pyridin-2-yl)pyrazolo[1,5-a]pyrimidine-6-carboxamide]", "values": [{"measurement": "Ki", "result": "100 to 1000", "unit": "nM"}]}, {"smiles": "Cc1c(C(=O)NCCC2CCN(Cc3ccccc3)CC2)cnc2cc(-c3ccc(C#N)cc3)nn12", "note": "[18-3]", "values": [{"measurement": "Ki", "result": "100 to 1000", "unit": "nM"}]}, {"smiles": "Cc1c(C(=O)NCCC2CCN(Cc3ccccc3)CC2)cnc2cc(-c3cccc(F)c3)nn12", "note": "[18-6]", "values": [{"measurement": "Ki", "result": "10 to 100", "unit": "nM"}]}, {"smiles": "Cc1c(C(=O)NCCC2CCN(Cc3ccccc3)CC2)cnc2cc(-c3cccc(F)c3F)nn12", "note": "[18-7]", "values": [{"measurement": "Ki", "result": "10 to 100", "unit": "nM"}]}, {"smiles": "Cc1c(C(=O)NCCC2CCN(Cc3ccccc3)CC2)cnc2cc(-c3cccc(C#N)c3)nn12", "note": "[18-8]", "values": [{"measurement": "Ki", "result": "10 to 100", "unit": "nM"}]}, {"smiles": "COc1ccccc1-c1cc2ncc(C(=O)NCCC3CCN(Cc4ccccc4)CC3)c(C)n2n1", "note": "[18-9]", "values": [{"measurement": "Ki", "result": "10 to 100", "unit": "nM"}]}, {"smiles": "Cc1c(C(=O)NCCC2CCN(Cc3ccccc3)CC2)cnc2cc(-c3cc(F)ccc3F)nn12", "note": "[18-10]", "values": [{"measurement": "Ki", "result": "10 to 100", "unit": "nM"}]}, {"smiles": "Cc1c(C(=O)NCCC2CCN(Cc3ccccc3)CC2)cnc2cc(-c3ccccc3C(F)(F)F)nn12", "note": "[18-11]", "values": [{"measurement": "Ki", "result": "10 to 100", "unit": "nM"}]}, {"smiles": "Cc1c(C(=O)NCCC2CCN(Cc3ccccc3)CC2)cnc2cc(-c3ccc(C#N)c(F)c3)nn12", "note": "[18-12]", "values": [{"measurement": "Ki", "result": "10 to 100", "unit": "nM"}]}, {"smiles": "Cc1c(C(=O)NCCC2CCN(Cc3ccccc3)CC2)cnc2cc(-c3ccc(OC(F)(F)F)cc3)nn12", "note": "[18-13]", "values": [{"measurement": "Ki", "result": "10 to 100", "unit": "nM"}]}]}
